Values of other authors as cited in US20250099360A1 (Goodier Cosmetics, LLC, priority 2023, published 2025).

Test system: UV-B-induced lipid peroxidation
Conditions: UV-B radiation

- effect on UV-B-induced lipid peroxidation: promotes UV-B-induced lipid peroxidation
Structure (SMILES): CCCCCCCCCCCCCCCC(=O)OC[C@H](O)[C@H]1OC(=O)C(O)=C1O [ascorbyl palmitate]
